The results in this text go back to ChEMBL document CHEMBL4680366, “Tumor-Targeted Bivalent Protein Degradation for Application in Cancer Therapy” (ACS Med Chem Lett, 2021).

One may read the IC50 as the concentration needed to halve the response being measured.

In experiment [1] the target is Bromodomain-containing protein 4 (Homo sapiens, UniProt O60885). Description: Binding affinity to recombinant human BRD4 BD1 and BD2 expressed in Escherichia coli BL21 incubated for 2 hrs under shaking condition by HTRF assay. For orientation: Time-resolved FRET reads energy transfer from a long-lived donor to a nearby acceptor.
In experiment [2] the target is Heat shock protein HSP 90-alpha/Bromodomain-containing protein 4 (Homo sapiens) (UniProt P07900+O60885). Description: Protac activity at HSP90/BRD4 in human MV4-11 cells assessed as degradation of BRD4 at 40 to 1000 nM measured after 24 hrs by flow cytometry relative to control. In kind it is cell-based. The following applies: dose 40-1000 nM. (In general: In flow cytometry, cells or beads pass a laser one at a time.)

The subject of a further experiment is MV4-11. Description: Antitumor activity at human MV4-11 cells xenografted in BALB/c mouse assessed as tumor growth inhibition at 25 to 100 mg/kg, ip administered for 3 to 4 weeks. Conditions: dose 25-100 mg/kg, time 3-4 weeks. In kind it is functional, organism-based. A general note: A xenograft is tissue or cells of one species grown in another, often human tumour cells in immunodeficient mice.

Activity calls are given as the source filed them. The calls are words filed in the database; no cut-off is given here.

In the case of `Cc1sc2c(c1C)C(c1ccc(Cl)cc1)=N[C@@H](CC(=O)N1CCC(CCN3CCC(Cc4ccc(-n5c(O)nnc5-c5cc(C(C)C)c(O)cc5O)cc4)CC3)CC1)c1nnc(C)n1-2`, the IC50 in experiment [1] was less than 100 nM.

For the compound `Cc1sc2c(c1C)C(c1ccc(Cl)cc1)=N[C@@H](CC(=O)N1CCC(CN3CCN(Cc4ccc(-n5c(O)nnc5-c5cc(C(C)C)c(O)cc5O)cc4)CC3)CC1)c1nnc(C)n1-2` [listing 1 of 3 here], in experiment [2], the Activity is more than 50%. The TGI result with MV4-11 is “Active”.

As for `Cc1sc2c(c1C)C(c1ccc(Cl)cc1)=N[C@@H](CC(=O)N1CCC(CN3CCN(Cc4ccc(-n5c(O)nnc5-c5cc(C(C)C)c(O)cc5O)cc4)CC3)CC1)c1nnc(C)n1-2` [listing 2 of 3 here], in experiment [1], the 50% inhibitory concentration (IC50) was determined as 100 nM.

As for `CCc1cc(-c2nnc(C(=O)NCC(F)(F)F)n2-c2ccc(CN3CCN(CC4CCN(C(=O)C[C@@H]5N=C(c6ccc(Cl)cc6)c6c(sc(C)c6C)-n6c(C)nnc65)CC4)CC3)cc2)c(O)cc1O`, the TGI entry in the experiment with MV4-11 was “Active”. The IC50 in experiment [1] is 100 nM.

On to `CCc1cc(-c2nnc(O)n2-c2ccc(CN3CCC(C(=O)N4CCC(CNC(=O)C[C@@H]5N=C(c6ccc(Cl)cc6)c6c(sc(C)c6C)-n6c(C)nnc65)C4)CC3)cc2)c(O)cc1O` (stereo not given in full), for which the IC50 in experiment [1] is less than 100 nM.

`Cc1sc2c(c1C)C(c1ccc(Cl)cc1)=N[C@@H](CC(=O)N[C@@H](C)c1ccc(CN3CCC(Cc4ccc(-n5c(O)nnc5-c5cc(C(C)C)c(O)cc5O)cc4)CC3)cc1)c1nnc(C)n1-2`: the concentration for half-maximal inhibition (IC50) in experiment [1] was less than 100 nM.

Regarding `Cc1sc2c(c1C)C(c1ccc(Cl)cc1)=N[C@@H](CC(=O)NCC(=O)NCC1CCN(C(=O)C3CCN(Cc4ccc(-n5c(O)nnc5-c5cc(C(C)C)c(O)cc5O)cc4)CC3)CC1)c1nnc(C)n1-2`, the Activity in experiment [2] was more than 50%. Further, the IC50 in experiment [1] was less than 100 nM.

Consider `Cc1sc2c(c1C)C(c1ccc(Cl)cc1)=N[C@@H](CC(=O)N1CCC(CN3CCN(Cc4ccc(-n5c(O)nnc5-c5cc(C(C)C)c(O)cc5O)cc4)CC3)CC1)c1nnc(C)n1-2` [listing 3 of 3 here], for which the 50% inhibitory concentration (IC50) in experiment [1] was 100 nM.

Consider `Cc1sc2c(c1C)C(c1ccc(Cl)cc1)=N[C@@H](CC(=O)NCCOCCN1CCC(Cc3ccc(-n4c(O)nnc4-c4cc(C(C)C)c(O)cc4O)cc3)CC1)c1nnc(C)n1-2`, for which the 50% inhibitory concentration (IC50) in experiment [1] was less than 100 nM.

On to `Cc1sc2c(c1C)C(c1ccc(Cl)cc1)=N[C@@H](CC(=O)N1CCC(CN3CCN(Cc4ccc(-n5c(O)nnc5-c5ccc(O)cc5O)cc4)CC3)CC1)c1nnc(C)n1-2`, for which the 50% inhibitory concentration (IC50) in experiment [1] was less than 100 nM.

With `CCc1cc(-c2nnc(O)n2-c2ccc(CN3CCN(CC4CCN(C(=O)C[C@@H]5N=C(c6ccc(Cl)cc6)c6c(sc(C)c6C)-n6c(C)nnc65)CC4)CC3)cc2)c(O)cc1O`, in experiment [2], the Activity was more than 50%. Moreover, the concentration for half-maximal inhibition (IC50) in experiment [1] was 100 nM.
